Source: the CheMixHub ionic liquid set
± gives the uncertainty stated by the source.

Assay: xn = mol fraction of the nth substance listed
Settings: for electrical conductivity: 101 kPa

CCCC[n+]1ccccc1.F[B-](F)(F)F + O
101.3 kPa
Settings	viscosity [mPa·s]
283.15 K, x2 = 0.263	84 ± 2.9
283.15 K, x2 = 0.637	15.85 ± 0.64
283.15 K, x2 = 0.724	10.78 ± 0.61
288.15 K, x2 = 0.11	153.8 ± 7
288.15 K, x2 = 0.391	35.82 ± 0.91
288.15 K, x2 = 0.637	13.01 ± 0.63
298.15 K, x2 = 0.724	6.55 ± 0.61
303.15 K, x2 = 0.11	67.1 ± 1.9
303.15 K, x2 = 0.549	11.1 ± 0.62
313.15 K, x2 = 0.549	8.32 ± 0.61
313.15 K, x2 = 0.724	4.34 ± 0.6
328.15 K, x2 = 0.11	24.88 ± 0.85
328.15 K, x2 = 0.724	3.11 ± 0.6
333.15 K, x2 = 0.414	7.99 ± 0.62
338.15 K, x2 = 0.637	3.52 ± 0.6
343.15 K, x2 = 0.11	15.89 ± 0.71
343.15 K, x2 = 0.263	9.35 ± 0.63
343.15 K, x2 = 0.391	6.91 ± 0.61
348.15 K, x2 = 0	18.45 ± 0.77

298.15 K
Settings	electrical conductivity [S/m]
x1 = 0.000191	0.096 ± 0.02
x1 = 0.0004053	0.191 ± 0.02
x1 = 0.0005259	0.247 ± 0.02
x1 = 0.0007203	0.33 ± 0.02
x1 = 0.0008354	0.365 ± 0.02
x1 = 0.0009829	0.44 ± 0.02
x1 = 0.001125	0.486 ± 0.02
x1 = 0.001254	0.542 ± 0.02
x1 = 0.001434	0.6 ± 0.02
x1 = 0.001585	0.659 ± 0.02
x1 = 0.001811	0.743 ± 0.02
x1 = 0.001984	0.819 ± 0.02
x1 = 0.002073	0.846 ± 0.02
x1 = 0.002208	0.889 ± 0.02
x1 = 0.002434	0.962 ± 0.02
x1 = 0.002597	1.02 ± 0.02
x1 = 0.002828	1.09 ± 0.02
x1 = 0.002875	1.11 ± 0.02
x1 = 0.003074	1.17 ± 0.02
x1 = 0.003174	1.2 ± 0.02

Cn1cc[n+](C)c1.[Cl-] + O
viscosity [mPa·s], 100 kPa
Settings	x1 = 8.631e-05	x1 = 0.0002029	x1 = 0.0003509	x1 = 0.0005369	x1 = 0.0007226	x1 = 0.0008926	x1 = 0.001063	x1 = 0.001349	x1 = 0.001718
278.15 K	1.521 ± 0.011	1.526 ± 0.011	1.529 ± 0.011	1.533 ± 0.011	1.536 ± 0.011	1.538 ± 0.011	1.544 ± 0.012	1.548 ± 0.012	1.553 ± 0.012
283.15 K	1.307 ± 0.01	1.311 ± 0.01	1.313 ± 0.01	1.317 ± 0.01	1.32 ± 0.01	1.323 ± 0.01	1.327 ± 0.01	1.33 ± 0.01	1.334 ± 0.01
288.15 K	1.141 ± 0.009	1.143 ± 0.009	1.145 ± 0.009	1.148 ± 0.009	1.15 ± 0.009	1.152 ± 0.009	1.155 ± 0.009	1.159 ± 0.009	1.164 ± 0.009
293.15 K	1.006 ± 0.008	1.007 ± 0.008	1.009 ± 0.008	1.012 ± 0.008	1.014 ± 0.008	1.016 ± 0.008	1.018 ± 0.008	1.022 ± 0.008	1.026 ± 0.008
298.15 K	0.893 ± 0.007	0.895 ± 0.007	0.897 ± 0.007	0.899 ± 0.007	0.901 ± 0.007	0.903 ± 0.007	0.906 ± 0.007	0.908 ± 0.007	0.912 ± 0.007
303.15 K	0.802 ± 0.006	0.803 ± 0.006	0.804 ± 0.006	0.805 ± 0.006	0.806 ± 0.006	0.808 ± 0.006	0.811 ± 0.006	0.813 ± 0.006	0.817 ± 0.006
308.15 K	0.721 ± 0.006	0.723 ± 0.006	0.724 ± 0.006	0.727 ± 0.006	0.728 ± 0.006	0.73 ± 0.006	0.732 ± 0.006	0.734 ± 0.006	0.737 ± 0.006
313.15 K	0.654 ± 0.005	0.655 ± 0.005	0.657 ± 0.005	0.659 ± 0.005	0.66 ± 0.005	0.662 ± 0.005	0.664 ± 0.005	0.666 ± 0.005	0.669 ± 0.005
